Like-named read-outs stand apart in the source and are kept apart here.
How the values were obtained:
Format in all cases: cell-based, human
HepG2 cells = test: Pulse-chase analysis of protein secretion in HepG2 cells; conditions: for secretory proteins in cell media: HepG2, 100 nM Ipom-F or 42 nM mycolactone 13.5 h, 100 nM bortezomib 2 h
Protocol: Pulse‐Chase Analysis of Protein Secretion in HepG2 Cells
The secretion assay was performed using a pulse–chase approach as described previously.20 HepG2 cells were treated with DMSO, 100 nM compound 8, 100 nM Ipom-F or […] mycolactone for 13.5 h before initiating the experiment, whereas pre-treatment with bortezomib 100 nM (Stratech) or 2.5 μg/ml brefeldin A were performed for 2 h and 1 h, respectively. Cells were starved in Met‐ and Cys‐free DMEM (Invitrogen) for 20 min at 37°C. Labeling was initiated by addition of fresh starvation medium containing […] [35S]Met and [35S]Cys protein labeling mix (Perkin Elmer; specific activity >1,000 Ci/mmol) for 15 min. After washing with PBS, cells were incubated in serum‐free DMEM supplemented with excess unlabeled L‐Met and L‐Cys (2 mM final concentration) for 2 h. The compounds were included throughout the starvation, pulse and chase. Secreted proteins in the media were recovered by precipitation with 13% trichloroacetic acid, washed in acetone and dissolved in 2x sample buffer. Cells were solubilized with Triton X‐100 lysis buffer (20 mM Tris, pH 7.5, 150 mM NaCl, 1% TX-100, 1 mM EDTA, 1 mM EGTA) supplemented with protease inhibitor cocktail and phenylmethylsulfonyl fluoride. Equal amounts

MDA-MB-231 = test: AlamarBlue cytotoxicity assay, MDA-MB-231; conditions: Homo sapiens, MDA-MB-231, 72 h, read-out: Cytotoxicity (IC50)
Protocol: AlamarBlue Cytotoxicity Assay
MDA-MB-231, MCF-10A and HCT116. Viable cells were counted with a hemocytometer immediately before each experiment . Experiments were done in triplicate. First, 100 μL of MDA-MB-231 cells or MCF-10A cells at the density of 50,000 cells/mL was seeded in a 96-well plate (5,000 cells/well) and then incubated at 37 °C and 5% CO2 for 24 h. The compounds were dissolved in DMSO (dimethyl sulfoxide) to make drug stocks (10 mM). The stock solutions were diluted with the complete DMEM high glucose culture medium to make a series of gradient fresh working solutions right before each test. Subsequently, the cells were treated with 100 μL of the freshly made gradient working solution in a total volume of 200 μL/well for 72 h. After that, the media were discarded and 200 μL of the fresh complete medium containing 10% of AlamarBlue (resazurin) stock solution was added to each well. The plate was then incubated at 37 °C and 5% CO2 for another 3 h. Emission of each well at 620 nm was detected by a microplate reader (BioTek Synergy H1) at excitation 580 nm. […]
Microplate Reader. The percentage of viability compared to the negative control (DMSO-treated cells) […]
was determined. […]

MCF7 = test: MTT cytotoxicity assay, MCF7; conditions: Homo sapiens, MCF7, 72 h, read-out: Cytotoxicity (IC50)
Protocol: Two human breast cancer cell lines (MDA-MB-231 and MCF7) and one human breast non-tumorigenic epithelial cell line (MCF-10A) were maintained in a DMEM high glucose culture medium supplemented with 10% fetal bovine serum (FBS) and 2 mM L-glutamine. The cells were grown in a humidified atmosphere of 5% CO2 and 95% air at 37 °C . The culture medi um w as changed every 2–4 days depending on cell density. Cell cultures were passaged once a week using 0.125% trypsin-EDTA to detach the cells from culture flasks/dishes.
The human colorectal cancer cell line HCT116 was maintained in McCoy’s 5A (modified) medium supplemented with 10% fetal bovine serum (FBS). The human embryonic kidney (HEK293T and HEK293 FRT TRex) cell line was maintained in DMEM high glucose culture medium supplemented with 10% fetal bovine serum (FBS).
HepG2 cells were cultured in DMEM supplemented with 10% fetal bovine serum and 2 mM L-glutamine at 37°C under 5% CO2.
Viable cells were counted with a hemocytometer immediately before each experiment. Experiments were done in triplicate. First, 100 μL of MCF7 cells at the density of 50,000 cells/mL were seeded in a 96-well plate (5,000 cells/well), which was incubated at 37 °C and 5% CO2 atmosphere for 24 h. The compounds were dissolved in DMSO (dimethyl sulfoxide) to make drug stocks (10 mM). The stock solutions were diluted with the complete DMEM high glucose culture medium to make a series of gradient fresh working solutions right before each test. Subsequently, the cells were treated with 100 μL of the freshly made gradient working solution in a total volume of 200 μL/well for 72 h. After that, the media were discarded and 200 μL of the fresh complete medium containing 10% of MTT stock solution (5 mg/mL) was added to each well. The plate was then incubated at 37 °C and 5% CO2 for 3 h. Next, 180 μL of the medium was discarded from each well , and 180 μL of DMSO was added to each well to dissol ve formazan crystals. Absorbance of formazan was detected by a microplate reader (BioTek Synergy H1) at 570 nm with 650 nm as the reference wavelength. The percentage of viability compared to the negative control (DMSO-treated cells) was determined . GraphPad Prism 6 software was used to make a plot of %

SMILES	secretory proteins in cell media (HepG2 cells)	IC50 (MDA-MB-231)	IC50 (MCF7)	global protein synthesis (total radiolabeled proteins) (HepG2 cells; HepG2, 100 nM, 13.5 h)	IC50 (MDA-MB-231; AlamarBlue)	IC50 (MCF7; MTT)
CC(=C\C=C\C(C)=C\[C@H](O)[C@@H](O)C[C@H](C)O)/C=C(C)/C=C/C(=O)O[C@H]1CCCC(=O)O[C@@H]([C@@H](C)C/C(C)=C/[C@@H](C)[C@H](O)C[C@@H](C)O)C/C=C(\C)C[C@@H]1C [mycolactone, reference compound]	substantial reduction					
C/C=C(\C)C(=O)O[C@@H]1[C@@H](O)[C@@H]2O[C@H]3[C@H](O[C@@H](CCCCC)CCCCCCC(=O)CCC(=O)OC[C@@H](O2)[C@H]1OC(=O)/C=C/c1ccccc1)O[C@H](C)[C@H](OC(C)=O)[C@@H]3O [ipomoeassin F]	substantial reduction	6.3 nM	36.4 nM	did not inhibit global protein synthesis		
C/C=C(\C)C(=O)O[C@H]1[C@H](OC(=O)/C=C/c2ccc(OCc3cn(CCOCCOCCOCCNC(=O)CCCC[C@@H]4SC[C@@H]5NC(=O)N[C@@H]54)nn3)cc2)[C@@H](O)[C@@H]2O[C@H]3[C@H](O[C@@H](CCCCC)CCCCCCC(=O)CCC(=O)OC[C@H]1O2)O[C@H](C)[C@H](OC(C)=O)[C@@H]3O [compound 5]					29.5 nM	187 nM

From article PMC6627486, “Ipomoeassin F Binds Sec61α to Inhibit Protein Translocation” (Journal of the American Chemical Society, 2019)
